Data: patent US20250032624A1, “SMALL MOLECULE DEGRADATION METHODS FOR TREATING ALS/FTD” (University of Florida Research Foundation, Incorporated, priority 2021, published 2025)

Tests used:
[1] = tested on: C9orf72 and transcriptome; test: RNA-seq in c9ALS/FTD patient-derived iPSCs; format: cell-based, human
Method: Total RNA integrity was confirmed by Agilent 2100 Bioanalyzer RNA nano chip, and the quantity was measured by Qubit 2.0 Fluorometer (Invitrogen). The library preparation was performed using NEBNext Ultra II Directional RNA kit (NEB, E7760) in combination with NEBNext rRNA depletion module (NEB, E6310) and RNA fragmentation module (NEB, E6150S), following manufacturer's recommendations. Briefly, a total of 200 ng RNA was first processed with depleted of ribosomal RNA, and then randomly fragmented to achieve range between 150 to 300 nucleotides. The fragmented RNAs were random primed for the first-strand synthesis, and the second strand was synthesized with dUTPs. The strand information is thus preserved by using USER enzyme (Uracil-specific excision reagent). The cDNA was PCR amplified and pooled equimolar to load onto the NextSeq 500 v2.5 flow cell and sequenced with 2×40 bp paired-end method. The output fastq files were aligned using STAR 3^5. The read counts of specific regions were extracted using samtools.^36 The global differential gene expression analysis was performed using featureCounts and Deseq2.^37,38

[2] = tested on: C9orf72 transcript degradation (RNase L, hRRP6, XRN1, XRN2); test: siRNA knock-down co-treatment experiments in c9ALS/FTD iPSCs (RT-qPCR); format: cell-based, human
Method: iPSCs were cultured as described in the “Cell Culture,” section. Briefly, iPSCs were plated into 6-well Matrigel coated plates and treated with compound and siRNA for four days. On day one, fresh media was added to the cells and siRNAs were transfected using Lipofectamine RNAiMax (Life Technologies), following the manufacturer's protocol. Cells were incubated for 1 hour at 37° C. and then compound was added to a final concentration of 50 nM (DMSO 0.1% (v/v)). Cells were incubated for 48 h, then media was replaced and the siRNA re-transfected. Following a 1 hour incubation, cells were treated with compound and then incubated for another 48 hours. After a total of 96 hours of treatment, RNA was extracted and RT-qPCR was performed following the protocol outline in the “Measuring Levels of C9orf72 and C9orf72 Variants by RT-qPCR,” section.

poly(GP) = poly(GP) and β-actin by electrochemiluminescence assay in brain of +/+PWR500 mice; format: in vivo, mouse
Method: A total of 20 age- and gender-matched mice (12 +/+PWR500 [5 Male and 7 Female] and 8 WT [4 Male and 4 Female]), ranging from 18-21 weeks old were used in therapeutic efficacy studies (Table 4). Mice were treated with a single bolus injection of 33 nmol of compound 2 formulated in 1% (v/v) DMSO/99% water, administered by an intracerebroventricular injection (ICV). Three weeks post injection, mice were euthanized, and tissue was harvested for study.
Postmortem brain tissue was harvested and sliced along the sagittal plane at the midline. The left hemisphere was frozen for RNA and protein analysis. Frozen brain tissue was homogenized in 300 μL Tris-EDTA buffer with a 1:5 w/v ratio of 2× protease and phosphatase inhibitors, as was done for RNA analysis of the tissue. Half of the homogenized tissue (150 μL) was mixed with 2× Lysis Buffer (50 mM Tris, pH 7.4, 250 mM NaCl, 2% (v/v) Triton X-100, and 4% (w/v) SDS) and sonicated at 1 second on/off intervals at 30% for a total of 15 seconds. Detergent from was removed using a Pierce™ Detergent Removal Spin Column 0.5 mL (Thermo Scientific) according to the manufacturer's protocol. Protein concentrations were then measured by BCA assay (Pierce Biotechnology) and poly(GP) was measured as described above for the electrochemical luminescent sandwich immunoassay.

C9orf72 = C9orf72 transcript RT-qPCR in healthy iPSNs; format: cell-based, human
Method: Differentiated motor neurons (iPSNs) were derived from the iPSCs listed in the previous section. The differentiation process was based on a previously reported method with slight modifications^33,34. Briefly, iPSCs were plated into Matrigel-coated 100 mm dishes (30-40% confluence). Neuroepithelial induction was performed by replacing the Basal medium with Stage 1 medium [47.5% IMDM (Iscove's Modified Dulbecco's Medium), 47.5% F12 medium, 1% NEAA (Non-Essential Amino Acids) (Life Technologies), 2% B27 (Invitrogen), 1% N2 (Invitrogen), 1% PSA (Penicillin-Streptomycin-Amphotericin), 0.2 μM LDN193189 (Stemgent), 10 μM SB431542 (STEMCELL Technologies) and 3 μM CHIR99021 (Sigma-Aldrich)]. The medium was changed daily for 6 days, after which cells were detached from plates using Accutase (STEMCELL Technologies). Cells were seeded into 6-well plates (1.5×10^6 cells/well) in 3 mL of Stage 2 medium [Stage 1 medium supplemented with 0.1 μM All-trans RA (Sigma-Aldrich) and 1 μM SAG (Cayman Chemicals)]. Cells were maintained in Stage 2 medium, with daily medium changes, through Day 11 of the differentiation process. On Day 12, the Stage 2 cell medium was removed and replaced with Stage 3 medium [47.5% IMDM, 47.5% F12 medium, 1% NEAA, 2% B27, 1% N2, 1% PSA, 0.1 μM Compound E (Millipore; Catalog #: 565790), 2.5 μM DAPT (Sigma-Aldrich), 0.1 μM db-cAMP (Millipore), 0.5 μM All-trans RA, 0.1 μM SAG, 20 ng/mL ascorbic acid, 10 ng/mL BDNF (STEMCELL Technologies), and 10 ng/mL GDNF (STEMCELL Technologies)]. This medium was replaced every three days until the end of the differentiation process. Typically, a minimum of 18 days is required to produce immature differentiated motor neurons; 30 days of differentiation is the standard for producing mature differentiated spinal neurons. The cells can be maintained in medium for an additional 14-28 days after reaching maturation. […]
For iPSNs cells were differentiated, following the protocol outlined above, until Day 15. […] RNA was extracted as described above and the expression levels of C9orf72 variants was determined by RT-qPCR and normalized to GAPDH. […]

[3] = 20 nM hRRP6-targeting siRNA, 50 nM compound

## CCOC(=O)C1=C(Nc2ccccc2)S/C(=C\c2ccc(OCCOCCOCCOCCNC(=O)CCCOc3ccc4c(c3)c3cc5c(C(=O)N[C@H](C)CN(C)C)nccc5c(C)c3n4C)c(O)c2)C1=O [ALS Compound Formula I]
[1]
  SOCS1 regulation by RNA-seq: not found to be significantly down-regulated
[1]; 50 nM
  intron 1:exon 2 ratio: significantly reduced
  off-targets transcriptome-wide: minimal off-targets
  total C9orf72 read counts: no effect
[2]; 20 nM RNase L-targeting siRNA, 50 nM compound
  intron 1 and exon 2-3 degradation under RNase L knock-down: ablation of both intron 1 and exon 2-3 degradation
[2]; 20 nM XRN1-targeting siRNA, 50 nM compound
  intron 1 decay and C9orf72 cleavage under XRN1 knock-down: ablation of intron 1 decay and C9orf72 cleavage
[2]; 20 nM XRN2-targeting siRNA, 50 nM compound
  intron 1 decay and C9orf72 cleavage under XRN2 knock-down: no effect on either
[2]; [3]
  exon 2-3 cleavage under hRRP6 knock-down: no effect
  intron 1 decay under hRRP6 knock-down: ablation of intron 1 decay
[2]; both siRNAs, compound co-treatment
  degradation of the transcript under RNase L and hRRP6 knock-down together: comparable to RNase L knock-down alone
poly(GP); house-keeping protein
  β-actin abundance: unaffected
poly(GP); single ICV injection, 3 weeks
  reduction of poly(GP): ~40%
C9orf72
  effect on exon 2-3 levels: No effect
  effect on intron 1b levels: No effect
  effect on intron 1 levels: No effect
